Data: patent US9198891B2, “Method of treating cancer by inhibition of protein kinase-like endoplasmic reticulum protein kinase” (New York University, priority 2010, dated 2015)

Test system: Mouse PERK
Assay: In vitro kinase inhibition assay: PERK-mediated eIF2α phosphorylation
Type: biochemical
Conditions: for Activity (ability to inhibit PERK-mediated eIF2α phosphorylation in vitro): compounds selected in the initial VLS; for relative inhibition of PERK among the six active compounds: initial VLS screening; for inhibition of PERK-dependent eIF2α phosphorylation in vitro: tested at 10 μM (FIG. 1C)
Procedure: Mouse PERK proteins comprising the cytoplasmic portion of the molecule with the delta loop deleted were pre-incubated with varying concentrations of compound at room temperature for 10 minutes. This construct thus contains close to a minimal catalytic domain of PERK, closely similar but not identical to SEQ ID NO: 1. The kinase reaction was initiated by the addition of 2 μM ATP, 0.2 μM γ-[^32P]ATP, 10 μM eIF2α and allowed to proceed at room temperature for 15 minutes (Marciniak et al., “Activation-Dependent Substrate Recruitment by the Eukaryotic Translation Initiation Factor 2 Kinase PERK,” J Cell Biol 172: 201-9 (2006), which is hereby incorporated by reference in its entirety). The phosphorylated eIF2α was then separated on 14% SDS-PAGE and visualized by autoradiography. To determine the selectivity of the compounds, their ability to inhibit protein kinase PKA was also evaluated. Briefly, PKA was pre-incubated with the compound at 40 μM, the highest concentration used in the PERK assay, for 10 minutes. Then, 10 μM ATP, 0.2 μM γ-[^32P]ATP and 10 μM GSTag were added, followed by the incubation at room temperature for 15 minutes.

| Structure (SMILES) | Activity (ability to inhibit PERK-mediated eIF2α phosphorylation in vitro) | concentration range over which PERK inhibition is displayed | relative inhibition of PERK among the six active compounds | inhibition of PERK-dependent eIF2α phosphorylation in vitro |
| --- | --- | --- | --- | --- |
| ON=C1CC2C3CC(C12)C1/C(=N\O)CC31 (stereo not drawn) [Compound A1] | inactive | – | – | – |
| O=C(CNC(=O)c1ccco1)N/N=C/c1ccc(O)cc1 [Compound A2] | inactive | – | – | – |
| Cc1ccccc1N1C(=O)CC(SC(=N)N/N=C/c2ccc(O)c(O)c2)C1=O (stereo not drawn) [Compound A3] | inactive | – | – | – |
| COc1cc(/C=N\N(C)c2nc(-c3ccccc3)cc(-c3ccc(Br)cc3)n2)ccc1O [Compound A4] | active | narrow range of concentration | relatively stronger inhibition of PERK | active |
| CCC(Oc1ccccc1)C(=O)Nc1sc2c(c1C(N)=O)CCC(C(C)(C)C)C2 (stereo not drawn) [Compound B2] | active | – | – | – |
| O=C(Nc1cccc(Oc2ccc3c(c2)C(=O)N(c2ccc(O)cc2)C3=O)c1)c1ccco1 [Compound B6] | active | – | – | – |
| Cc1ccc(OCCOCCOc2ccccc2/C=C2\SC(=N)NC2=O)cc1 [Compound C1] | active | – | – | – |
| O=C(Nc1ccc(O)cc1C(=O)O)c1ccc(C(=O)Nc2ccc(O)cc2C(=O)O)cc1 [Compound C3] | inactive | – | – | – |
| NS(=O)(=O)c1ccc(CNC(=O)/C=C/c2ccc3c(c2)OCO3)cc1 [Compound C6] | inactive | – | – | – |
| O=C(COc1ccccc1)NC(=S)Nc1ccc(O)c(-c2nc3ccccc3s2)c1 [Compound D1] | active | 1 to 25 µM | relatively stronger inhibition of PERK | active |
| CCC(Sc1nnc(COc2ccccc2C)n1C)C(=O)Nc1ccc(C(C)=O)cc1 (stereo not drawn) [Compound D4] | inactive | – | – | – |
| CCOC(=O)c1c(NC(=O)CSc2nc(N)cc(=O)[nH]2)sc2c1CCC2 [Compound E1] | active | – | – | – |
